Here are results for one compound from patent US9120756B2, “Substituted phenylureas and phenylamides as vanilloid receptor ligands” (Gruenenthal GmbH, priority 2009, dated 2015).

In experiment [1] the target is hVR1 (Homo sapiens (Human), UniProt Q8NER1). Description: FLIPR assay human VR1, 45° C. stimulus. Conditions: inhibition determined at 2.5 μM, read-out: IC50 (human being) 45° C. column: inhibition (as a percentage) @ 2.5 μM. The format is cell-based. An excerpt:
The agonistic or antagonistic effect of the substances to be tested on the vanilloid receptor 1 (VR1) can also be determined using the following assay. In this assay, the influx of Ca^2+ through the channel is quantified with the aid of a Ca^2+-sensitive dye (type Fluo-4, Molecular Probes Europe BV, Leiden, the Netherlands) in a fluorescent imaging plate reader (FLIPR, Molecular Devices, Sunnyvale, USA).
Chinese hamster ovary cells (CHO K1 cells, European Collection of Cell Cultures (ECACC) United Kingdom) are stably transfected with the VR1 gene. For functional testing, these cells are plated out on poly-D-lysine-coated black 96-well plates having a clear base (BD Biosciences, Heidelberg, Germany) at a density of 25,000 cells/well. The cells are incubated overnight at 37° C. and 5% CO2 in a culture medium (Ham's F12 nutrient mixture, 10% by volume of FCS (foetal calf serum), 18 μg/ml of L-proline). The next day the cells are incubated with Fluo-4 (Fluo-4 2 μM, 0.01% by volume of Pluronic F127, Molecular Probes in HBSS (Hank's buffered saline solution), Gibco Invitrogen GmbH, Karlsruhe, Germany) for 30 minutes at 37° C. Subsequently, the plates are washed three times with HBSS buffer and after further incubation for 15 minutes at RT used for Ca^2+ measurement in a FLIPR assay. The Ca^2+-dependent fluorescence is measured before and after the addition of the substances to be tested (λex wavelength=488 nm, λem=540 nm). Quantification is carried out by measuring the highest fluorescence intensity (FC, fluorescence counts) over time.
The FLIPR protocol consists of 2 substance additions. […]
Desensitising agonists and antagonists led to suppression of the Ca^2+ influx.
Ki values for the test substances were obtained by conversion by means of the Cheng-Prusoff equation (Cheng, Prusoff; Biochem. Pharmacol. 22, 3099-3108, 1973).

In experiment [2] the test system is mice. In words: Formalin test carried out on mice (FTm). It counts as in vivo. Conditions: 1 po, percentage change relative to control. Here is the method:
In the formalin test, the testing to determine the antinociceptive effect of the compounds according to the invention is carried out on male mice (NMRI, 20 to 30 g body weight, Iffa, Credo, Belgium).
In the formalin test as described by D. Dubuisson et al., Pain 1977, 4, 161-174, a distinction is drawn between the first (early) phase (0 to 15 minutes after the injection of formalin) and the second (late) phase (15 to 60 minutes after the injection of formalin). The early phase, as an immediate reaction to the injection of formalin, is a model of acute pain, whereas the late phase is regarded as a model of persistent (chronic) pain (T. J. Coderre et al., Pain 1993, 52, 259-285). The corresponding descriptions in the literature are introduced herewith by way of reference and form part of the disclosure.
The compounds according to the invention are tested in the second phase of the formalin test to obtain information about the effects of substances on chronic/inflammatory pain. […]
Subsequently, the nociceptive behaviour is continuously detected by observing the animals over a test period of three minutes in the second (late) phase of the formalin test (21 to 24 minutes after the injection of formalin). The pain behaviour is quantified by adding up the seconds over which the animals display licking and biting of the paw in question during the test period. […]

hVR1, sequence (Q8NER1 whole entry): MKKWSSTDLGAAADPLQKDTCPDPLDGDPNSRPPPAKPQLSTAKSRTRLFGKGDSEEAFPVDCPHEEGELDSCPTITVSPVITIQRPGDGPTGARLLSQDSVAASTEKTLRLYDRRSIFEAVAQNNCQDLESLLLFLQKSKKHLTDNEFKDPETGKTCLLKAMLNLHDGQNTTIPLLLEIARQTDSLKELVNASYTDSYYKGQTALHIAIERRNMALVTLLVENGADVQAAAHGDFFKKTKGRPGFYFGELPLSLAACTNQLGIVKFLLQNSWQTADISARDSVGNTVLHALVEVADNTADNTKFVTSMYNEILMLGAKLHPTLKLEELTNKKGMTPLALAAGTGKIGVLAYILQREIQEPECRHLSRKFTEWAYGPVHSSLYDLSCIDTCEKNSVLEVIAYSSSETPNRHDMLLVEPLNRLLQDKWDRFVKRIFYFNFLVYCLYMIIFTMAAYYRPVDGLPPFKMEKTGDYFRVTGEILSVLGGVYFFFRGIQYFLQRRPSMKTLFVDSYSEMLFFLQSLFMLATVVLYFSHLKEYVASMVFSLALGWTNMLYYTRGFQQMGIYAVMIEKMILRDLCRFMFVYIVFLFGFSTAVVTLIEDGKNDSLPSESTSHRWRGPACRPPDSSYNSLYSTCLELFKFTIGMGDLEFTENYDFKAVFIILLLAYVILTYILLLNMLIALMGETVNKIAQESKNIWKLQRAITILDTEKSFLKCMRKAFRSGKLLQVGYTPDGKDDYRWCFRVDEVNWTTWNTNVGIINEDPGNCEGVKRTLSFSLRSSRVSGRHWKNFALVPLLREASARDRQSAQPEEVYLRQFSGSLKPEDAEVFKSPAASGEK

Consider `O=C(Cc1cccc(F)c1)NCc1cc(C(F)(F)F)nn1-c1cccc(Cl)c1` [Example 74, N-((1-(3-chlorophenyl)-3-(trifluoromethyl)-1H-pyrazol-5-yl)methyl)-2-(3-fluorophenyl)acetamide], for which the inhibition – broadly, how much of the control response was suppressed – at 2.5 µM in experiment [1] was found to be 12%. In experiment [2], this compound gave an FTm of 13%.
